This is an account of results in patent publication US9023762B2, “Plant growth regulator compositions, methods of preparation and use thereof” (Valent BioSciences Corporation, priority 2011, dated 2015).

SMILES strings stand for the structures.

Data set [1] deals with Pansy plants. Briefly: Pansy shelf life extension study (sprench application). The format is in vivo. The conditions noted are these: for Days of extended shelf life / S-(+)-Abscisic acid dose (mg) to extend 1 day of shelf life / S-(+)-Abscisic acid dose (mg) to extend 2 days of shelf life: drench and foliar applied; for S-(+)-Abscisic acid dose to extend 1 day shelf life: drench/foliar applied; for S-(+)-Abscisic acid dose (mg) to extend 1 day of shelf life / S-(+)-Abscisic acid dose (mg) to extend 2 days of shelf life: log-linear regression. From the text:
Efficacy of the preferred composition of the present invention was also studied with Pansy plants to compare its shelf life extension effect against 10% potassium salt of S-(+)-Abscisic acid solution (ABA salt) and technical grade active ingredient of the free acid (S-(+)-Abscisic acid).
Pansy plants were obtained from local retailers as mature plants. Pansy plants were then transplanted into an 18-cell flat filled with Promix BX (available from Premier Horticulture Inc. Quakertown, Pa.) and grown for 3 days prior to treatment.
Uniform plants were selected for the study. Prior to S-(+)-Abscisic acid treatment, plants were saturated with water and then drained for about two hours. A total of 20 mL S-(+)-Abscisic acid solution, which is equivalent to about 10% of the cell volume, was applied to each plant by soil drench/foliar spray application. In the ornamental industry, this method of chemical application is commonly known as a sprench application. In this study, 17 mL solution was drench applied to root zone and 3 mL solution was foliar applied to canopy. Plants were not watered following the S-(+)-Abscisic acid treatment.
After the S-(+)-Abscisic acid treatment, plants were arranged in a randomized complete block experimental design. The plants were rated daily for the extent of wilting on a scale from 1 for no wilting to 4 for complete wilting. A rating of 2.5 was the point at which a plant was determined to be unmarketable and the previous day was recorded as the shelf life of that plant in days. The log-linear regression between S-(+)-Abscisic acid doses and the extension of shelf life over control plants was used for calculation of S-(+)-Abscisic acid dose to extend 1 day or 2 days of shelf life.

The subject of data set [2] is Tomato (variety: Rutgers) plants. In words: Tomato transpiration inhibition study (foliar application). The format is in vivo. The conditions noted are these: for Transpiration rate (% of control) Average of 3 days after treatment: foliarly applied to tomato leaves; for S-(+)-Abscisic acid doses to achieve 50% inhibition of transpiration / S-(+)-Abscisic acid dose to achieve 50% inhibition of transpiration: foliar, first 3 days after treatment; for S-(+)-Abscisic acid dose to achieve 50% inhibition of transpiration: log-linear regression; for Relative potency: transpiration inhibition. An excerpt:
Efficacy of the preferred composition of the present invention was studied with tomato plants to compare its transpiration inhibition effect against 10% potassium salt of S-(+)-Abscisic acid solution (ABA salt) and technical grade active ingredient of the free acid (S-(+)-Abscisic acid). Tomato (variety: Rutgers) seeds were sown in an 18-cell flat filled with Promix PGX (available from Premier Horticulture Inc. Quakertown, Pa.) for four weeks for germination and initial growth. Plants were then transplanted into pots (18 cm in diameter and 18 cm in height) filled with Promix BX (available from Premier Horticulture Inc. Quakertown, Pa.) and grown for another 5 days before treatment. During growing periods, plants received daily irrigation and weekly fertilizer (1 g/L all purpose fertilizer 20-20-20, The Scotts Company, Marysville, Ohio). S-(+)-Abscisic acid solutions of different, formulations were foliar applied to tomato plant leaves at the rate of 24 mL/6 plants. Plants were then placed in a transparent chamber with humidity controlled at relative humidity 40 to 60%. Leaf transpiration rate was measured 1, 2, 3 or 4 and 7 days after treatment using an AP4 Leaf Porometer (Dynamax, Inc., Houston, Tex.). The transpiration rate of each treatment was calculated as the percentage of that of control at each day to reduce day-to-day variation caused by changes of environmental condition such as light intensity and temperature. The log-linear regression between S-(+)-Abscisic acid doses and the average transpiration rates of first 3 days after treatment was used for calculation of S-(+)-Abscisic acid dose to achieve 50% inhibition of transpiration.

The conditions of data set [3]: cited from earlier work.
Data set [4] relates to canola seed. In words: Canola emergence after seed treatment (S-ABA as ammonium salt solution, 6-benzyladenine technical powder). The conditions noted are these: for Final emergence (%) / Qrange / T50: 6-BA 0 g/cwt. The format is in vivo. On the procedure: In this example, the effect of the cytokinin 6-benzyladenine on S-(+)-Abscisic acid induced germination delay on Canola was studied. The experiment was set up as an S-(+)-Abscisic acid-dose×BA-dose factorial experiment, with four doses of S-(+)-Abscisic acid (0, 25, 50, and 100 g/cwt) and four doses of 6-benzyladenine (0, 1, 5 and 25 g/cwt) for a total of 16 treatment combinations. The treatments were made up in 1 ml samples of experimental aqueous seed treatment slurry. S-(+)-Abscisic acid was added in the form of a water solution of the ammonium salt. 6-Benzyladenine was added as technical powder. Ten μl Tween® 20 were added to each sample to help wet and suspend the 6-benzyladenine powder. All of the seed treatment slurry samples contained CP-Clear film-forming agent and Color Coat Red (available from Becker Underwood), each at 1 oz/cwt, and 0.167 oz/cwt Maxim XL fungicide (available from Syngenta). The slurry application volume was 40 oz/cwt (cwt means per 100 lbs or 45.4 kgs of seed). Ten gram samples of canola seed were treated with the experimental slurries using a Hege 11 seed treater with a six-inch bowl.
The seed was planted in plastic boxes containing 1 kg of typical agricultural slit loam. One hundred seeds were planted 2 cm deep in each plastic box, and the soil in the box was adjusted to 21% soil moisture (wet-weight basis). Two replications of the experiment were incubated under constant light in a 10° C. chamber. The soil temperature averaged 12.6° C. The boxes were watered up to the correct weight every 1-2 days, and checked for emergence. Counts of seedlings were continued until it became clear that emergence had ceased (28 days). The final count of emerged seedlings was expressed as a percentage of the 100 seeds planted.
The daily counts were converted to proportions of the final emergence of the box, and a Gompertz curve was fitted to the data from each box using SAS Proc NLIN. From the parameters of the model, median emergence time (T50) and quartile range (Qrange) were estimated for each box. Analysis of variance was performed and means calculated for each of the three responses (Final emergence, T50, Qrange).

Where [5] appears, read: relative to S-(+)-Abscisic acid salt = 1.
The mark [6] stands for this setting: relative to S-(+)-Abscisic acid = 1.

In the case of `CC1=CC(=O)CC(C)(C)[C@@]1(O)/C=C/C(C)=C\C(=O)[O-].[K+]` [S-(+)-Abscisic acid salt], the “Days of extended shelf life” value in data set [1] (ABA dose 1 mg) was 0.50 days; in data set [1] (ABA dose 3 mg), 1.17 days; in data set [1] (ABA dose 10 mg) it was 1.50 days; in data set [1] (ABA dose 30 mg) it was 1.83 days. Besides, in data set [1], the “S-(+)-Abscisic acid dose to extend 1 day shelf life” value is 2.83 mg/plant. In addition, the “S-(+)-Abscisic acid dose (mg) to extend 1 day of shelf life” value in data set [1] turned out to be 2.83 mg. The “S-(+)-Abscisic acid dose (mg) to extend 2 days of shelf life” value in data set [1] amounted to 39.83 mg. Also, in data set [1] (setting [5]), the “Relative potency (1 day)” value worked out at 1. Moreover, the “Relative potency (2 days)” value in data set [1] (setting [5]) is reported as 1. Moreover, the “Transpiration rate (% of control) Average of 3 days after treatment” value is 70 % of control in data set [2] (ABA dose 1 mg), 60 % of control in data set [2] (ABA dose 3 mg) and 50 % of control in data set [2] (ABA dose 10 mg). Also, in data set [2], the “S-(+)-Abscisic acid doses to achieve 50% inhibition of transpiration” value was 10.13 mg/plant. The “S-(+)-Abscisic acid dose to achieve 50% inhibition of transpiration” value in data set [2] is 10.13 mg. In addition, the Relative potency in data set [2] (setting [5]) is given as 1.

Regarding `CC1=CC(=O)CC(C)(C)[C@@]1(O)/C=C/C(C)=C\C(=O)O` [S-(+)-Abscisic acid], the “Days of extended shelf life” value in data set [1] (ABA dose 1 mg) was 0 days; in data set [1] (ABA dose 3 mg) it was 0.67 days; in data set [1] (ABA dose 10 mg), 0.83 days; in data set [1] (ABA dose 30 mg) it was 1.67 days. Also, the “S-(+)-Abscisic acid dose to extend 1 day shelf life” value in data set [1] is recorded as 8.68 mg/plant. The “S-(+)-Abscisic acid dose (mg) to extend 1 day of shelf life” value in data set [1] is on record as 8.68 mg. Moreover, the “S-(+)-Abscisic acid dose (mg) to extend 2 days of shelf life” value in data set [1] is 79.62 mg. In data set [1] (setting [6]), the “Relative potency (2 days)” value is listed as 1. Further, the “highest concentration that can be achieved in pure water” value in data set [3] (pure water at room temperature) was “about 3000 ppm”. For the same molecule, the “solubility limit in the tank-mix” value in data set [3] (tank-mix) was “up to 3000 ppm”. For the same molecule, the “final emergence in words” value in data set [4] (S-(+)-Abscisic acid dose of 100 g/cwt) is given as “roughly cut in half”. In addition, the “Final emergence (%)” value in data set [4] (S-ABA 25 g/cwt) amounted to 92.3%; in data set [4] (S-ABA 50 g/cwt), 68.9%; in data set [4] (S-ABA 100 g/cwt), 53.5%. Further, the “Qrange” value in data set [4] (S-ABA 25 g/cwt) is given as 3.26 days; in data set [4] (S-ABA 50 g/cwt), 4.27 days; in data set [4] (S-ABA 100 g/cwt), 4.27 days. For the same molecule, the “T50” value in data set [4] (S-ABA 25 g/cwt) amounted to 9.15 days; in data set [4] (S-ABA 50 g/cwt) it was 11.20 days; in data set [4] (S-ABA 100 g/cwt) it was 12.74 days. Further, the “Transpiration rate (% of control) Average of 3 days after treatment” value in data set [2] (ABA dose 1 mg) is given as 73 % of control; in data set [2] (ABA dose 3 mg), 63 % of control; in data set [2] (ABA dose 10 mg), 54 % of control. The “S-(+)-Abscisic acid doses to achieve 50% inhibition of transpiration” value in data set [2] came to 15.02 mg/plant. Further, the “S-(+)-Abscisic acid dose to achieve 50% inhibition of transpiration” value in data set [2] stood at 15.02 mg. The molecule also displayed a Relative potency in data set [2] (setting [6]) of 1.
